Series [1] deals with quadriceps muscle. Kind of series: Quadriceps muscle pO2 during gas breathing. The series is classed as in vivo, rat. On the procedure: (§1) Tumors were implanted in rats as described hereinabove, and the rats were set up to breathe either 100% O2, 100% O2 plus 100 parts per million ethyl nitrite (ENO), normal room air, or normal room air plus 100 ppm ENO. pO2 was monitored in the tumor or in quadriceps muscle from 30 minutes before the administration of the 100% O2/100% O2 plus 100 ppm ENO/room air/room air plus 100 ppm ENO, during 30 minutes of breathing of the gases, and for 30 minutes after the administered gas supply was removed.

The test system of series [2] is mammary adenocarcinoma R3230AC tumors. Nature of the series: Tumor pO2 during gas breathing. The series is classed as in vivo, rat. Here is the method:
as §1

The test system is the same in series [3]. Nature of the series: Tumor growth delay after radiation. The series is classed as in vivo, rat. The conditions noted are these: 100 ppm ENO plus 100% O2; 2 Gy daily on days 0-4; versus 100% O2, room air, non-irradiated. Here is the method: Tumors were implanted in rats as described hereinabove, and the tumors were irradiated daily with 2 Gy of irradiation on days 0-4. Relative tumor volumes were determined daily from day 0 to day 18 in rats that breathed room air (N=4), 100% O2 (N=4), or 100 ppm ENO plus 100% O2. As a control, relative tumor volumes for rats that breathed room air (N=3) and were not treated with radiation. were also determined.

Series [4] has the same test system. Kind of series: Tumor perfusion by Laser Doppler flowmetry. The series is classed as in vivo, rat. Set-up: key to TUMOR perfusion: 0, unchanged; ↓, decreased; ↑, increased. The conditions noted are these: for tumor blood flow (perfusion), flank tumors: normoxic rats.
Series [5] concerns baroreceptor and peripheral vasculature. Kind of series: Summary of bioactivity of cell-free SNO-Hb and oxy-Hb (Table 3). It counts as in vivo, rat.
For series [6], the system named is quadriceps muscle. Kind of series: Quadriceps muscle (systemic) perfusion by Laser Doppler flowmetry. The series is classed as in vivo, rat. Set-up: key to SYSTEMIC perfusion: 0, unchanged; ↓, decreased; ↑, increased. The conditions noted are these: for muscle blood flow (leg quadriceps): hyperoxia versus normoxia.
Series [7] concerns Fischer 344 rats. Kind of series: Mean arterial pressure and heart rate. It counts as in vivo, rat. Set-up: key to SYSTEMIC MAP / SYSTEMIC HR: 0, unchanged; ↓, decreased; ↑, increased. Here is the method:
Mean arterial pressure (MAP) and heart rate (HR) were measured with a blood pressure analyzer (Digi-Med, Micro-Med, Louisville, Ky., United States of America) connected to the femoral artery cannula as described in Dewhirst et al., 1996.

A short description of series [8]: Hb tetramer/dimer dissociation. Particulars: assuming plasma concentration of about 6.5 μmol/L, room air. The series is classed as physicochemical. An excerpt: Hb dissociation from tetramers to dimers depends on Hb concentration and oxygen tension, and NO release from dimers is unresponsive to allosteric effectors (e.g., O2). […] Is there enough tetrameric SNO-Hb to sense oxygen and regulate NO delivery? Evidently yes, as a finely tuned regulation of SNO-Hb bioactivity by oxygen tension (NO release depends on local pO2) that contrasted with the O2-independent behavior of oxy-Hb was observed. That the plasma half-life of SNO on Hb was more than doubled during hyperoxia while protein clearance remained unaffected was also observed.

For series [9] the following is noted: cited from earlier work.
The subject of the next series is tumor-feeding arterioles. Nature of the series: Diameter of tumor-feeding arterioles in window chambers. Set-up: key to TUMOR vascular diameter: 0, unchanged; ↓, decreased; ↑, increased. Particulars: for TUMOR vascular diameter: IV. It counts as in vivo, rat. The source says:
For i.v. infusions, the femoral artery and vein were cannulated and drugs were infused through the venous cannula. For i.a. infusions, the femoral and left carotid arteries were cannulated and drugs were infused through the carotid cannula. For window chamber experiments, the two window frames were surgically positioned in the dorsal skin flap, followed by tumor cell transplantation to the chamber tissue, as described in Dewhirst et al., 1996. Following several days of tumor growth, direct visualization of tumor-feeding arterioles was performed using intravital microscopy. Tumor-feeding arterioles in window chambers were visualized using transillumination. Arteriolar diameters were measured from videotaped images using an image-shearing monitor (IPM Inc., San Diego, Calif., United States of America).

For series [10], the system named is Fischer 344 rats. Nature of the series: Blood gas and hemoglobin saturation measurements. The series is classed as in vivo, rat. Particulars: breathing 100% O2. On the procedure:
Blood gases and Hb oxygen saturation were measured using a 1640 oximeter coupled to a 482 co-oximeter (Instrumentation Laboratories, Lexington, Mass., United States of America) from 0.5 ml samples of femoral arterial and venous blood. For tumor microvessels in window chambers, Hb saturation was calculated from transmission optical measurements of vascular absorbance using a hyperspectral imaging technique described in Sorg et al., 2005. A liquid crystal tunable filter (CRI, Inc., Woburn, Mass., United States of America) placed in front of a CCD camera (DVC Company, Austin, Tex., United States of America) was used for band-limited imaging.

[11] abbreviates: 30 minutes breathing 100% O2 or 100% O2 plus 100 ppm ENO.
Setting [12] is: 30 minutes breathing room air plus 100 ppm ENO.
Setting [13] is: IV, Room air, change versus before treatment.
Where [14] appears, read: vascular pO2 at injection site any.
Setting [15] is: i.v. infusion, normoxic animals.
[16] abbreviates: vascular pO2 at injection site low.
The mark [17] stands for this setting: i.a. and i.v. infusion, control experiments.

“Also recorded” adds a separate entry of the source.

Here are results for six molecules from patent US8466110B2, “Use of an agent that restores tissue perfusion and oxygenation” (Duke University, priority 2005, dated 2013).

Turning to `CCON=O` [ENO, ethyl nitrite], the “pO2 in quadriceps muscle” value in the series on quadriceps muscle [1] (setting [11]) was “increased rapidly”; with quadriceps muscle [1] (setting [12]) it was “this effect was not seen”. Besides, the figures for the pO2 in tumors entry in [2] (setting [11]) and in series [2] (setting [12]) were “above 10 mm Hg” and “remained largely unchanged”, respectively. Further, the “growth of irradiated tumors (relative tumor volume)” value in series [3] is listed as “grew more slowly”.

As to “SNO-albumin: bovine serum albumin reacted with NaNO2 (S-nitrosylated albumin) [reference compound]”, the “tumor blood flow (perfusion), flank tumors” value (from here on “tumor blood flow (perfusion)”) in series [4] (i.v. infusion) is given as “small increase in tumor perfusion”.

With “oxyhemoglobin [oxy-Hb, reference compound]”, the TUMOR perfusion entry in series [4] (IV, 100% O2) is on record as “↓”; in [4] (setting [13]), “↓”. Further, the “tumor blood flow (perfusion)” value in series [4] (i.v. infusion) is “rapid and sustained decrease in tumor blood flow”. For the same molecule, in [5] (setting [14]), the Baroreceptor effect result is given as “none”. Further, the Peripheral effect entry in series [5] (setting [14]) is given as “vasoconstriction”. The SYSTEMIC perfusion entry was “↓” with quadriceps muscle [6] (IV, 100% O2) and “↓” in the series on quadriceps muscle [6] (IV, Room air). Also, the “muscle blood flow (leg quadriceps)” value with quadriceps muscle [6] (i.v. infusion) is recorded as “hyperoxia did not modify the effect of oxy-Hb in muscles”. Further, the “SYSTEMIC MAP” value in the series with Fischer 344 rats [7] (IV, 100% O2) is given as 0; in the series with Fischer 344 rats [7] (IV, Room air), 0. Further, the MAP entry in the series on Fischer 344 rats [7] (i.v. infusion, normoxia or hyperoxia) is recorded as “no effect on MAP”. Moreover, the HR result in the series on Fischer 344 rats [7] (i.v. infusion, from 5 minutes after infusion, more severe in hyperoxic than in normoxic rats) is listed as “induced bradycardia”.

Consider S-nitrosohemoglobin [SNO-Hb], for which, in series [8], the “fraction present as tetramers” value is given as “about 35%”. Further, the TUMOR perfusion was 0 in series [4] (IA, 100% O2); 0 in series [4] (IA, Room air); 0 in series [4] (IV, 100% O2); “↓*” in [4] (setting [13]). Besides, the “pressor activity (tumor perfusion)” value in series [4] (i.a. infusion, hyperoxic rats versus i.a. room air) is “not altered”. In addition, the “decrease in tumor perfusion” value in series [4] (i.a. infusion, normoxic animals, compared to i.v.) is given as “not significantly different compared to i.v. infusion”. For the same molecule, the “tumor perfusion, flank tumors” value in series [4] (i.v. infusion, 100% O2 (hyperoxia) versus room air) is listed as “hyperoxia abolished the reduction in tumor perfusion”. For the same molecule, the “tumor perfusion, window chamber tumors” value in series [4] (i.v. infusion, hyperoxic rats) is recorded as “this decrease was prevented”; in series [4] (setting [15]), “potent decrease in tumor perfusion”. The “tumor blood flow (perfusion)” value in [4] (i.v. infusion) was “reduced perfusion”. Also, in series [9] (R conformer), the “KD (tetramer/dimer), R conformer” value is 3 µM. For the same molecule, in series [9] (T conformer), the “KD (tetramer/dimer), T conformer” value was 0.003 µM. Also, the Baroreceptor effect result in series [5] (vascular pO2 at injection site high) is “inhibition”; in series [5] (setting [16]) it was “none”. For the same molecule, the Peripheral effect entry in [5] (vascular pO2 at injection site high, dose-dependent effect) was “vasodilation”; in series [5] (setting [16]), “vasoconstriction”. Moreover, the SYSTEMIC perfusion with quadriceps muscle [6] (IA, 100% O2) is 0; in the series on quadriceps muscle [6] (IA, Room air), 0; with quadriceps muscle [6] (IV, 100% O2), 0; in the series with quadriceps muscle [6] (IV, Room air), “↓”. The “muscle blood flow (quadriceps)” value with quadriceps muscle [6] (i.a. infusion, independently of O2 delivery) is reported as “remained unaltered”. In addition, the “muscle blood flow (leg quadriceps)” value with quadriceps muscle [6] (i.v. infusion) was “prevented under hyperoxia”. In addition, in the series on quadriceps muscle [6] (i.v. infusion, rats breathing room air (normoxia)), the “muscle perfusion in the quadriceps” value is reported as “decreased muscle perfusion more than Hb; also recorded: decrease in muscle blood flow”. Further, the TUMOR vascular diameter with tumor-feeding arterioles (100% O2) and in the series with tumor-feeding arterioles (Room air) was 0 in each case. For the same molecule, the “diameter of tumor feeding arterioles” value in the series with tumor-feeding arterioles (i.v. infusion, normoxic or hyperoxic rats, window chamber) was “no significant change”. For the same molecule, the “SYSTEMIC HR” value with Fischer 344 rats [7] (IA, 100% O2) is 0; with Fischer 344 rats [7] (IA, Room air), 0; with Fischer 344 rats [7] (IV, 100% O2), 0; in the series with Fischer 344 rats [7] (IV, Room air), 0. Further, the “SYSTEMIC MAP” value with Fischer 344 rats [7] (IA, 100% O2) is given as “↑”; in the series with Fischer 344 rats [7] (IA, Room air) it was “↑”; with Fischer 344 rats [7] (IV, 100% O2), “↑”; in the series with Fischer 344 rats [7] (IV, Room air) it was 0. Besides, the HR entry with Fischer 344 rats [7] (i.a. infusion, normoxic and hyperoxic) is reported as “remained unchanged”; in the series on Fischer 344 rats [7] (i.v. infusion, hyperoxia), “no significant effect on HR”; in the series on Fischer 344 rats [7] (setting [15]) it was “No change”. Besides, the MAP result in the series with Fischer 344 rats [7] (i.a. infusion, from 5 minutes (normoxic) and 10 minutes (hyperoxic)) is on record as “significant increase in MAP”; with Fischer 344 rats [7] (i.v. infusion, hyperoxia, from 10 minutes after infusion), “significant increase in the MAP”; in the series with Fischer 344 rats [7] (setting [15]), “No change”.

Regarding albumin [reference compound], in [4] (setting [17]), the TUMOR perfusion entry is reported as “did not induce any significant or differential change”. Further, in the series with Fischer 344 rats [7] (setting [17]), the HR result is recorded as “did not induce any significant or differential change” and the MAP entry is “did not induce any significant or differential change”.

`O=O` [100% O2]: in the series on Fischer 344 rats [10], the “Femoral artery HbO2” value is on record as 98.2 ± 0.1 %, the “Femoral artery pCO2” value is recorded as 56.9 ± 1.7 mm Hg, the “Femoral artery pO2” value worked out at 435.5 ± 34.7 mm Hg and the “Femoral vein HbO2” value is given as 75.8 ± 3.4 %. Also, in the series with Fischer 344 rats [10], the “Femoral vein pCO2” value is recorded as 72.0 ± 2.1 mm Hg and the “Femoral vein pO2” value worked out at 69.8 ± 3.0 mm Hg. Also, in the series with Fischer 344 rats [10] (window chamber), the “Tumor artery HbO2” value was determined as 89 ± 2 % and the “Tumor vein HbO2” value is reported as 78 ± 3 %. In addition, the “effects of hyperoxia alone on tumor and muscle perfusion” value in series [4] (100% O2 alone, before drug infusion) is listed as “transient decrease that resumed within 5 minutes (i.e., before drug infusion) to no change”. In the series with quadriceps muscle [1] (setting [11]), the “pO2 in quadriceps muscle” value is listed as “increased rapidly”. For the same molecule, in the series with tumor-feeding arterioles (hyperoxia alone, t=-5 to t=0), the “diameter of tumor feeding arterioles” value was “no vascular effect”. Besides, in the series on Fischer 344 rats [7] (hyperoxia alone, N=19), the “change in HR” value is listed as −3% and the “change in MAP” value is “+1%”. Also, the pO2 in tumors result in series [2] (setting [11]) was “insufficient to raise the pO2 to above 10 mm Hg”.
